Source: patent US9763451B2, “Method for improved use of the production potential of genetically modified plants” (Bayer Intellectual Property GmbH, priority 2008, dated 2017)

Columns and labels:
Format in all cases: in vivo
Aphis gossypii [1] = assay: Aphis gossypii test (foliar application) on genetically modified cotton; settings: 20 ppm
Source text: (§1) A synergistic effect in insecticides and acaricides is always present when the action of the active compound combinations exceeds the total of the actions of the active compounds when applied individually.
(§2) The expected action for a given combination of two active compounds can be calculated as follows, using the formula of S. R. Colby, Weeds 15 (1967), 20-22:
(§3) • X is the kill rate, expressed as % of the untreated control, when employing active compound A at an application rate of m g/ha or in a concentration of m ppm, • Y is the kill rate, expressed as % of the untreated control, when employing the transgenic seed and • E is the kill rate, expressed as % of the untreated control, when employing the active compound A at application rates of m g/ha or in a concentration of m ppm and the transgenic seed, then
(§4) If the actual insecticidal kill rate exceeds the calculated value, the action of the combination is superadditive, i.e. a synergistic effect is present. In this case, the actually observed kill rate must exceed the value calculated using the above formula for the expected kill rate (E).
(§5) Individual potted genetically modified cotton plants with Lepidoptera resistance and Glyphosate resistance are treated with the desired product against the cotton aphid (Aphis gossypii).
(§6) After the desired period of time, the kill in % is determined. 100% means that all the aphids have been killed; 0% means that none of the aphids have been killed.

Spodoptera frugiperda = Spodoptera frugiperda test (foliar application) on genetically modified maize; settings: compound alone, 100 ppm
Source text: as §1, §2, §3, §4
Pots with in each case 5 genetically modified maize plants with Lepidoptera, Coleoptera and/or herbicide resistances are treated in 2 replications against the armyworm (Spodoptera frugiperda).
After the desired period of time, the kill in % is determined. […]

Aphis gossypii [2] = assay: Aphis gossypii test (drench application) on genetically modified cotton; settings: 0.8 ppm
Source text: as §1, §2, §3, §4, §5, §6

[3] = combined with cotton plant containing cry gene and Glyphosate resistance gene, expected kill

## CC(c1ccc(C(F)(F)F)nc1)S(C)(=O)=NC#N (stereo not shown) [compound I-8]
Aphis gossypii [1]; combined with cotton plant containing cry gene (Lepidoptera resistance) and Glyphosate resistance gene, after 1 d
  Kill in % after 1d, found: 85%
Aphis gossypii [1]; [3]
  Kill in % after 1d, calc. (Colby formula): 65%
Aphis gossypii [1]; active compound alone, after 1 d
  Kill in % after 1d: 65%
Spodoptera frugiperda
  Kill in % after 4d: 0%
Aphis gossypii [2]; combined with cotton plant containing cry gene (Lepidoptera resistance) and Glyphosate resistance gene, after 2 d
  Kill in % after 2d, found: 90%
Aphis gossypii [2]; [3]
  Kill in % after 2d, calc. (Colby formula): 70%
Aphis gossypii [2]; active compound alone, after 2 d
  Kill in % after 2d: 70%
